Laboratory results taken from patent publication US7297501B2, “Method and devices for running reactions on a target plate for MALDI mass spectrometry” (University of Pennsylvania, priority 2001, dated 2007).
*: point of attachment. AMC = Cc1cc(=O)oc2cc(N*)ccc12; Cbz = O=C(OCc1ccccc1)*

Columns and labels:
plasmin [1] = conditions: Morita, 1977; cited from earlier work
thrombin [2] = biological target: T1, thrombin (Homo sapiens, UniProt P00734); test: Label-free nanoliter HTS reaction on MALDI target: thrombin release of fibrinopeptides A and B from fibrinogen, MALDI MS detection; format: biochemical; conditions: benzamidine in the nanoliter reaction, FIG. 26B
Experimental: The glycerol in the reaction was then removed, and MALDI matrix was deposited to result in a thin film suitable (FIG. 26A) for MS detection of FPA/FPB.
A 8×12 array of reactions were printed using an OmniGrid microarrayer containing varying concentrations of fibrinogen and a fibrinopeptide MS satandard. Certain reactions contained 1 mM benzamidine. The array was activated with thrombin and incubated under humidity (top row, A), the glycerol was removed (middle row, A), and then coated with MALDI matrix (bottom row, A). […] Conditions of the MALDI MS were: Voyager—DE PRO (sinapinic acid matrix), Glu1-Fibrinopeptide B (1 ug/ml) control, Reflector Mode, Positive Polarity, 1000-2000 Da Acquisition Range, 20000 V Accelerating voltage, 2033 laser. intensity (20.0 Hz; 100/spectrum), Extraction delay time: 150 nsec, Grid voltage: 75%, Guide wire voltage: 0.002%.

thrombin [3] = biological target: T1, thrombin; test: Microarray assay: aerosol deposition of thrombin onto fluorogenic substrates in DMSO/glycerol; format: biochemical; conditions: after spray application of thrombin
Experimental: Well characterized for over 30 years, serine proteases of the coagulation pathway in plasma were selected as a system in which to monitor the delivery of complex enzyme fluids to the microassay. Fluorogenic substrates in DMSO/glycerol were assayed to a glass slide.
After spray application, thrombin caused a 65-fold increase in fluorescence activity after conversion of the boc-VPR-MCA substrate. […] Aerosol deposition of pure tPA (10 μM) to a sensing array caused significant cleavage of the tPA, thrombin and Xa substrates, resulting in fluorescence that was 18- to 20-fold above background.

plasmin [4] = biological target: plasmin (Homo sapiens, UniProt P00747); test: Microarray assay: deposition of pure plasmin onto fluorogenic substrate array; format: biochemical; conditions: pure plasmin (1 μM) deposited on the array
plasmin (Homo sapiens, UniProt P00747), sequence (P00747 581-810 limits assumed, species assumed): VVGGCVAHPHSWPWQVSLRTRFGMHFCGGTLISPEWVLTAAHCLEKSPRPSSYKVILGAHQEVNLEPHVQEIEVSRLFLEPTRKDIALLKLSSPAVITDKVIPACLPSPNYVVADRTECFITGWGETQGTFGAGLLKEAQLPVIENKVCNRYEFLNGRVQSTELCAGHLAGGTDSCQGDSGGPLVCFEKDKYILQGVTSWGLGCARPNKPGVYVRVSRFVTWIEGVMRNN
plasmin (Homo sapiens, UniProt P00747), sequence (P00747 97-580 partner limits assumed, species assumed): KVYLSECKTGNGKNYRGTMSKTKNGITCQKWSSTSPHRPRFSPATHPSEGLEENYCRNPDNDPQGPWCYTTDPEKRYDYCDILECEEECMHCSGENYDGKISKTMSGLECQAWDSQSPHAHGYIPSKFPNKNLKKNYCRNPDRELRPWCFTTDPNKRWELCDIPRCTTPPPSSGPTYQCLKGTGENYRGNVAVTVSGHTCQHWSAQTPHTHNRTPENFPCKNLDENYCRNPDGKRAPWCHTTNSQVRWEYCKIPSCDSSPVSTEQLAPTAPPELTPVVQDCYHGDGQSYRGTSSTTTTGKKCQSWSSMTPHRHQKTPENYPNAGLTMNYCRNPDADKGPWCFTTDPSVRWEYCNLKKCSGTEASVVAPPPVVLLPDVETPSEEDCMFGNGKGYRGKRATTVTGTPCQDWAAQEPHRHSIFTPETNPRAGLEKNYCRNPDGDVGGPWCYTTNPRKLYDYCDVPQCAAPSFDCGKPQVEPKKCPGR

Cbz-Phe-Arg-{AMC}
reported plasmin activity on substrate (plasmin [1]): activity

N=C(N)c1ccccc1 [Benzamidine]
inhibition of thrombin-mediated release of fibrinopeptides A and B (FPA/FPB) (thrombin [2]): completely inhibited the reaction

boc-VPR-MCA
increase in fluorescence activity after conversion of the substrate (thrombin [3]): 65 fold
reported plasmin activity on substrate (plasmin [1]): activity

boc-VLK-MCA
signal above background (plasmin [4]): 25 fold
